Test results published in patent publication US8609836B2, “4-aryl-2-anilino-pyrimidines” (Janssen Pharmaceutica NV, priority 2008, dated 2013).
pIC50: −log10 of the molar value.

Columns and labels:
GSK3β (h) = GSK3β (h) (Homo sapiens, UniProt P49841); experiment: GSK-3β human kinase inhibition, SPA; type: biochemical; conditions: read-out: GSK3b pIC50 (converted)
How it was run: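 Radiometric: 33P-labelled peptide captured on streptavidin SPA beads after EDTA stop and imaged on Leadseeker. Reaction ran 1 h at RT, 1 μM cold ATP with 2 nM [γ-33P]ATP, 1 μM biotin-peptide substrate, human GSK3β 1 μg/ml, pH 7.4 Tris buffer.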

CDK4/CyclinD1 (h) = CDK4/CyclinD1 (h) (Homo sapiens, UniProt P11802); experiment: CDK4/CyclinD1 human kinase inhibition, SPA with GST-pRb substrate; type: biochemical; conditions: read-out: CDK4 pIC50 (converted)
Chain of CDK4/CyclinD1 (h) (P11802 whole entry): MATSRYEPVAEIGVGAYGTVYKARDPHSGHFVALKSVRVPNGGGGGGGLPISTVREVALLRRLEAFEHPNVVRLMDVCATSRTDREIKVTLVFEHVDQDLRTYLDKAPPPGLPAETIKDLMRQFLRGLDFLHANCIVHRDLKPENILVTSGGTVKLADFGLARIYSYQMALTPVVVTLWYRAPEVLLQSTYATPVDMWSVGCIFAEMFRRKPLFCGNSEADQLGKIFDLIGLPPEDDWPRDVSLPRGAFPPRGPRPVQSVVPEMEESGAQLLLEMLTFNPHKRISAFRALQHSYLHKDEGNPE
Chain of CDK4/CyclinD1 (h) (P24385 whole entry partner): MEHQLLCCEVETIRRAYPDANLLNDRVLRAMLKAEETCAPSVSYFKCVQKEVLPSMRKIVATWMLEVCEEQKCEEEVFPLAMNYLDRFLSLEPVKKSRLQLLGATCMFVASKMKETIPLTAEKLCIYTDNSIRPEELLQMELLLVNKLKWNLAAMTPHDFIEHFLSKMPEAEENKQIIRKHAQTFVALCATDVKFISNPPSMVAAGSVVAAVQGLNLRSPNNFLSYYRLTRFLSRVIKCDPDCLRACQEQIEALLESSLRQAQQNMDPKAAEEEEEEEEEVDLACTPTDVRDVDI
How it was run: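 Scintillation proximity format: after EDTA/Triton stop containing glutathione SPA beads, 33P incorporation was counted. The reaction ran 60 min at room temperature in Hepes pH 7.5 with NaF, MgCl2, DTT, using 2.5 μg/ml human CDK4/CyclinD1, 40 μg/ml GST-pRb substrate and 2 nM [γ-33P]ATP.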

PLK1 T210D (h) = PLK1 T210D (h) (Homo sapiens, UniProt P53350, T210D); experiment: PLK1 human kinase inhibition, SPA; type: biochemical; conditions: read-out: PLK1 pIC50 (converted)
Chain of PLK1 T210D (h) (P53350 whole entry T210D): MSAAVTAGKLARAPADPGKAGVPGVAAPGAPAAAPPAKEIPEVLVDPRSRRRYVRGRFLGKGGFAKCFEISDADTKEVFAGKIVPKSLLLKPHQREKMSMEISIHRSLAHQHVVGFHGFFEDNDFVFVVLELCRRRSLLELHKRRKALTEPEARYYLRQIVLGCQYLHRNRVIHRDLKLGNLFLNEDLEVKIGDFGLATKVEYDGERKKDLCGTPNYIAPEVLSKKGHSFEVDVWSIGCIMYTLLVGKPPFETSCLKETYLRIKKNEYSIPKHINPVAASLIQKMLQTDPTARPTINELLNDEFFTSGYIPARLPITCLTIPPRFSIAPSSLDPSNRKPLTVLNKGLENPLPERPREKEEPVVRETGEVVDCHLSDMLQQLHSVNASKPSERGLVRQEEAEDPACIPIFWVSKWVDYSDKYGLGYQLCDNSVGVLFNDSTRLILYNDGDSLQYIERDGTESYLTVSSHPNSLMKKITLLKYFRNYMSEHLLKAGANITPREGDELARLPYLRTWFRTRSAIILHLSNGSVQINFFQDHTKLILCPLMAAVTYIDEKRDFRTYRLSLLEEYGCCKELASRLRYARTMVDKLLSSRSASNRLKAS
How it was run: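 Kinase incubated 40 min at room temperature with 0.1 μM ATP (2 nM [γ-33P]ATP tracer), 2 μM biotinylated peptide, pH 8.0 Hepes buffer with 2 mM MnCl2 and 1 mM DTT; enzyme at 0.125 ng/ml. Stopped with EDTA; 33P-peptide bound to streptavidin scintillant beads and imaged.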

PLK2 (h) = PLK2 (h) (Homo sapiens, UniProt Q9NYY3); experiment: PLK2 human kinase inhibition, SPA; type: biochemical; conditions: read-out: PLK2 pIC50 (converted)
Chain of PLK2 (h) (Q9NYY3 whole entry): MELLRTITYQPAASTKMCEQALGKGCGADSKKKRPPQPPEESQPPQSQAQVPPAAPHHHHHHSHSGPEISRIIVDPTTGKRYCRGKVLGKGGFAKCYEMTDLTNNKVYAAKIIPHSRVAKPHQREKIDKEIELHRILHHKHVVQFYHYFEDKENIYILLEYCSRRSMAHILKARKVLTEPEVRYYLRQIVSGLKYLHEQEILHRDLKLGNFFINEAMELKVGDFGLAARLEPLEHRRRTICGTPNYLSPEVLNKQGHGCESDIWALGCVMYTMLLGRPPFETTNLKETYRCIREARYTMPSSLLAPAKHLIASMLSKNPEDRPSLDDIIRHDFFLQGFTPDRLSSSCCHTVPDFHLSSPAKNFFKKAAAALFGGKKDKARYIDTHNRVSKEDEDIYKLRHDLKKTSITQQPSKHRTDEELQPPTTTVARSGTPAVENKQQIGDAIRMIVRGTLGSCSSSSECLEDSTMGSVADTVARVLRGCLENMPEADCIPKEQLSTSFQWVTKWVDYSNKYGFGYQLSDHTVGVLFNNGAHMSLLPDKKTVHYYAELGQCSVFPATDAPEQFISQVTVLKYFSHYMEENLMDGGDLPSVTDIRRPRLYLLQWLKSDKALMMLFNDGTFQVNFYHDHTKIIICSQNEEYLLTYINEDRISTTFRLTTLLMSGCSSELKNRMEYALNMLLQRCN
How it was run: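 33P incorporation into a biotinylated peptide (2 μM) was captured on streptavidin PVT beads and imaged on Leadseeker. Enzyme at 30 μg/ml, ATP 0.1 μM with 2 nM [γ-33P]ATP, Hepes pH 8.0 with MnCl2 and DTT. Incubation was 20 min at room temperature.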

PLK3 (h) = PLK3 (h) (Homo sapiens, UniProt Q9H4B4); experiment: PLK3 human kinase inhibition, SPA; type: biochemical; conditions: read-out: PLK3 pIC50 (converted)
Chain of PLK3 (h) (Q9H4B4 whole entry): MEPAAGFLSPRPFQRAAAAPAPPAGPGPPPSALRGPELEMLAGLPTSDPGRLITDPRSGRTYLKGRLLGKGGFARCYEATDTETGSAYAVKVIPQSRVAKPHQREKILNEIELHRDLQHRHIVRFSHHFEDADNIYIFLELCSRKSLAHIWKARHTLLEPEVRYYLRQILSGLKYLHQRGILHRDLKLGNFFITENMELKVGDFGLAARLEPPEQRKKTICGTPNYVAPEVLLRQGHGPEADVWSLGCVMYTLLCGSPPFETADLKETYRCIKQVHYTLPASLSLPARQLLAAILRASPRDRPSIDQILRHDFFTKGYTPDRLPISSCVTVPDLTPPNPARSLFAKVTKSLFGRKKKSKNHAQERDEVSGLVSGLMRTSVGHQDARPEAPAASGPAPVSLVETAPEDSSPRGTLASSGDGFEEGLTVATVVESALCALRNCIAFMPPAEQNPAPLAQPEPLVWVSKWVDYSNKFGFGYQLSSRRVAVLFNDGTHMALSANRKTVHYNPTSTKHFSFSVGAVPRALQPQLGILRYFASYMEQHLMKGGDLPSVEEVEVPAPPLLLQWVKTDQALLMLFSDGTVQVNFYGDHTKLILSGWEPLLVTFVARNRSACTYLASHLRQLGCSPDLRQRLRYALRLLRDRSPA
How it was run: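 Radiometric scintillation proximity format at pH 8.0 (Hepes, MnCl2, DTT). The 2 μM biotin-peptide substrate is phosphorylated by PLK3 (h) (30 μg/ml) using 0.1 μM ATP traced with 33P, for 20 min at room temperature. EDTA stop; phosphopeptide captured on streptavidin beads and imaged.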

HCT-116 = experiment: Cellular proliferation assay (Alamar blue), HCT-116; type: cell-based; conditions: Homo sapiens, 10% FCS, 72 hours with compound, Alamar blue 4 h
How it was run: (§1)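 After a 24 h compound-free attachment period, cells in 10% FCS medium are treated for 72 h at 37° C. Resazurin conversion is then quantified by fluorescence, with dye incubation lasting 4 h for HCT-116, 6 h for U87-MG and 24 h for A2780 or MDA-MB-231.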

H1299 = experiment: Cellular proliferation assay (Alamar blue), H1299; type: cell-based; conditions: Homo sapiens, NCI-H1299; 10% FCS; 72 hours with compound; Alamar blue 4 h
How it was run: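 This proliferation assay on NCI-H1299 cells used an initial 24-hour compound-free incubation after seeding, followed by 72 hours of compound treatment with 10% FCS serum at 37° C. and 5% (v/v) CO2. Viable cells were quantified by a 4 h Alamar blue incubation and fluorescent plate reading at 544 nm/590 nm, and effects were expressed relative to control cells.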

U87-MG = experiment: Cellular proliferation assay (Alamar blue), U87-MG; type: cell-based; conditions: Homo sapiens, U-87 MG; 10% FCS; 72 hours with compound; Alamar blue 6 h; read-out: U87-MG (cellular proliferation assay, Table 4) (converted)
How it was run: as §1

A2780 = experiment: Cellular proliferation assay (Alamar blue), A2780; type: cell-based; conditions: Homo sapiens, 10% FCS, 72 hours with compound, Alamar blue 24 h, read-out: A2780 (cellular proliferation assay, Table 4) (converted)
How it was run: as §1

Chain of GSK3β (h) (P49841 whole entry): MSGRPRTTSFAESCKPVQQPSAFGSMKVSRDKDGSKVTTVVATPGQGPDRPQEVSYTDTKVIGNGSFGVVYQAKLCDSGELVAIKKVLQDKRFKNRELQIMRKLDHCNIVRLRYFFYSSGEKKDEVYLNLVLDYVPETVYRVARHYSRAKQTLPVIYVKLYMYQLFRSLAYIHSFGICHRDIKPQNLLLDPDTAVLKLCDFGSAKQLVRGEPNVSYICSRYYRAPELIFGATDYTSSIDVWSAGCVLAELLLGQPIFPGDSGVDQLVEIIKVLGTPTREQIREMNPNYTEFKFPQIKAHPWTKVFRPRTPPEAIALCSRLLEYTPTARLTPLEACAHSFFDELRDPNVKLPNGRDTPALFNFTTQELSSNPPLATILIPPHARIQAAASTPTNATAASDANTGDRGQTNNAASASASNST

Compound	IC50 (GSK3β (h)) [µM]	IC50 (CDK4/CyclinD1 (h)) [µM]	IC50 (PLK1 T210D (h)) [µM]	IC50 (PLK2 (h)) [µM]	IC50 (PLK3 (h)) [µM]	pIC50 (HCT-116)	pIC50 (H1299)	IC50 (U87-MG) [µM]	IC50 (A2780) [µM]
O=C1CN2CCN(CC2)Cc2cc(ccc2N2CCOCC2)Nc2nccc(n2)-c2cccc(c2)OCCCN1 [Compound 103]	1.55	> 10	> 10	> 10	> 10	< 5.00	< 5.00	> 10	> 10
CN1CCCNC(=O)[C@H](CO)NCc2cccc(c2)Nc2nccc(n2)-c2ccc(cc2)C1 [Compound 113]	> 10	> 10	> 10	> 10	> 10	< 5.00	< 5.00	> 10	> 10
O=C1NCCNCc2ccc(cc2)-c2ccnc(n2)Nc2ccc(N3CCOCC3)c(c2)CN[C@H]1CO [Compound 115]	> 10	> 10	> 10	> 10	> 10	< 5.00	< 5.00	> 10	> 10
COc1ccc2cc1CNCCNC(=O)CN1CCN(CC1)Cc1cc(ccc1N1CCOCC1)Nc1nccc-2n1 [Compound 126]	> 10	> 10	> 10	> 10	> 10	5.06	< 5.00	> 10	5.37
COc1ccc2cc1CN(C)CCCNC(=O)CN1CCN(CC1)Cc1cc(cc(NC(C)C)c1)Nc1nccc-2n1 [Compound 130]	5.37	> 10	> 10	> 10	> 10	< 5.00	< 5.00	> 10	> 10
CN1CCNC(=O)CN2CCN(CC2)Cc2cc(cc(N3CCOCC3)c2)Nc2nccc(n2)-c2ccc(cc2)C1 [Compound 135]	4.37	> 10	> 10	> 10	> 10	< 5.00	< 5.00	9.77	> 10
COc1ccc2cc1CN(C)CCCNC(=O)CN1CCN(CC1)Cc1cc(cc(N3CCOCC3)c1)Nc1nccc-2n1 [Compound 141]	> 10	> 10	> 10	> 10	> 10	5.64	< 5.00	5.89	8.91
COc1ccc2cc1CN(C)CCNC(=O)CN1CCN(CC1)Cc1cc(cc(NC(C)C)c1)Nc1nccc-2n1 [Compound 142]	> 10	> 10	> 10	> 10	> 10	< 5.00	< 5.00	5.62	> 10
COc1ccc2cc1CN(C)CCCNC(=O)CN1CCN(CC1)Cc1cc(Br)cc(c1)Nc1nccc-2n1 [Compound 144]	> 10	> 10	> 10	> 10	> 10	< 5.00	< 5.00	9.33	> 10
COc1ccc2cc1CN(C)CCNC(=O)CN1CCN(CC1)Cc1cc(cc(N3CCOCC3)c1)Nc1nccc-2n1 [Compound 145]	> 10	> 10	> 10	> 10	> 10	< 5.00	< 5.00	> 10	> 10
COc1ccc2cc1CN(C)CCCNC(=O)CN1CCN(CC1)Cc1cccc(c1)Nc1nccc-2n1 [Compound 146]	> 10	> 10	> 10	> 10	> 10	< 5.00	< 5.00	> 10	> 10
COc1ccc2cc1CN(C)CCNC(=O)CN1CCN(CC1)Cc1cccc(c1)Nc1nccc-2n1 [Compound 147]	> 10	> 10	> 10	> 10	> 10	< 5.00	< 5.00	> 10	> 10
CC(C)Nc1cc2cc(c1)Nc1nccc(n1)-c1ccc(cc1)CN(C)CCNC(=O)[C@@H]1CCCN1C2 [Compound 153]	3.24	> 10	> 10	> 10	> 10	5.26	< 5.00	5.75	> 10
CN1CCNC(=O)[C@@H]2CCCN2Cc2cc(Br)cc(c2)Nc2nccc(n2)-c2ccc(cc2)C1 [Compound 155]	2.34	> 10	> 10	> 10	> 10	< 5.00	< 5.00	> 10	> 10
O=C1NCCNc2cc(ccn2)-c2ccnc(n2)Nc2ccc(N3CCOCC3)c(c2)CN2CCCC12 (stereo not drawn) [Compound 161]	0.182	> 10	> 10	> 10	> 10	5.33	5.00	> 10	9.77
COc1ccc2cc1CN(C)CCCNC(=O)[C@@H]1CCCN1Cc1cc(cc(NC(C)C)c1)Nc1nccc-2n1 [Compound 164]	> 10	> 10	> 10	> 10	> 10	< 5.00	< 5.00	2.09	> 10
O=C1NCCCNCc2ccc(cc2)-c2ccnc(n2)Nc2ccc(N3CCOCC3)c(c2)CN2C[C@H](O)C[C@@H]12 [Compound 169]	> 10	> 10	> 10	> 10	> 10	< 5.00	< 5.00	> 10	> 10
CN1CCCNC(=O)[C@@H]2CCCN2Cc2cccc(c2)Nc2nccc(n2)-c2ccc(cc2)C1 [Compound 173]	> 10	> 10	> 10	> 10	> 10	< 5.00	< 5.00	> 10	> 10
COc1ccc2cc1CN(C)CCNC(=O)[C@@H]1CCCN1Cc1cccc(c1)Nc1nccc-2n1 [Compound 175]	> 10	> 10	> 10	> 10	> 10	< 5.00	< 5.00	> 10	> 10
COc1ccc2cc1CNCCNC(=O)[C@@H]1C[C@@H](O)CN1Cc1cc(ccc1N1CCOCC1)Nc1nccc-2n1 [Compound 177]	> 10	> 10	> 10	> 10	> 10	< 5.00	< 5.00	> 10	> 10
COc1ccc2cc1CNCCNC(=O)[C@@H]1CCCN1Cc1cc(ccc1N1CCOCC1)Nc1nccc-2n1 [Compound 178]	> 10	> 10	> 10	> 10	> 10	< 5.00	< 5.00	8.91	> 10
COc1ccc2cc1CN(C)CCCNC(=O)[C@@H]1CCCN1Cc1cc(cc(N3CCOCC3)c1)Nc1nccc-2n1 [Compound 179]	> 10	> 10	> 10	> 10	> 10	< 5.00	< 5.00	> 10	> 10
